{"source": "patent US20230233566A1", "about": "“INHIBITION OF BMI1 ELIMINATES CANCER STEM CELLS AND ACTIVATES ANTITUMOR IMMUNITY” (The Regents of the University of California, priority 2020, published 2023)", "key": {"BMI1+ CSCs": {"system": "BMI1+ CSCs", "assay": "In vivo labeling and lineage tracing of Tomato+ BMI1+ CSCs", "parameters": "species or system mouse", "conditions": "tamoxifen 1 day prior to sacrifice, treated 4 weeks", "procedure": "The immunocomplexes were detected and visualized using related secondary antibodies conjugated with Cy2 or Cy3 (Jackson ImmunoResearch Laboratories). […] At least three sections from each HNSCC lesions were immunostained and analyzed. Tumor cells (>150) and CD8+, Ac-casp3+ and Tomato^+ cells of these tumor cell areas were counted manually in each section. The percentage of CD8+, Ac-casp3^+ and Tomato^+ cells were calculated by dividing those cells with tumor cells and averaged from the sections."}, "CD8+ T cells": {"system": "CD8+ T cells", "assay": "Flow cytometry of T cells in lymph nodes, blood and spleen", "assay_type": "in vivo, mouse", "conditions": "blood and spleen of 4NQO-induced HNSCC mice", "from_the_text": "PBMCs were isolated from blood using Ficoll-Paque Plus density gradient centrifugation (GE Healthcare Life Sciences, Cat #17-1440). Cervical lymph nodes and spleens were collected and processed into single-cell suspensions through mechanical separation. The isolated or dissociated cells were stained with the specific surface marker antibodies, anti-CD3-FITC (eBioscience, Cat #11-0031), anti-CD4-APC (eBioscience, Cat #17-0041), and anti-CD8-PerCP-Cy5.5 (eBioscience, Cat #45-0081) in PBS with FBS for 30 min at 4° C. Intracellular staining of IFNγ was performed as follows: cells were stimulated with PMA and ionomysin cocktail (eBioscience, Cat #00-4970) for 5 h at 37° C. with 5% CO2. Cells were washed and stained with surface marker antibodies, then fixed and permeabilized with a fixation/permeabilization kit (BD Bioscience, Cat #554715) and intracellularly stained with anti-IFNγ-PE (eBioscience, Cat #12-7311). For proper compensation of flow cytometry channels, single-stain samples were utilized, and for gating, isotype controls were applied. The stained cells were analyzed on the BD FACS flow cytometer, and data analyzed using Flowjo software."}, "SCC23 cells [1]": {"system": "SCC23 cells", "assay": "RNA-Seq and GO analysis in SCC23 cells", "assay_type": "cell-based, human", "procedure": "Total RNA was isolated from PTC209-treated or shBMI1 knockdown SCC cells using a RNeasy Micro Kit (QIAGEN, Cat #74004). RNA quality was examined using an Agilent 2100 Bioanalyzer. Library preparation using the KAPA RNA-Seq Library Preparation Kits (KAPA Biosystems, Cat #07960140001) was performed at the UCLA sequencing core facility, and RNAs were single-end sequenced on Illumina HiSeq 3000 machines. The online DAVID bioinformatics resources were used to analyze the differentially expressed genes under the category of GOTERM_BP_DIRECT. The heatmap was generated with Heatmap Builder. The raw data was deposited at the Gene Expression Omnibus (GEO) under the subseries entry GSE140433."}, "[2]": {"system": "CCL5, CXCL9, CXCL10, and CXCL11", "assay": "qRT-PCR and ELISA of CCL5, CXCL9, CXCL10, CXCL11 in SCC cells", "assay_type": "cell-based, human", "conditions": "SCC1 and SCC23 cells", "procedure": "(§1) For qRT-PCR, total RNA was prepared using TRIzol reagent (Thermo Fisher Scientific Cat #15596026), and 1 μg of RNA was reversely transcribed with random primer (Thermo Fisher Scientific Cat #48190011), dNTP mix (Thermo Fisher Scientific, Cat #18427013), and M-MuLV Reverse Transcriptase (New England Biolabs, Cat #M0253L). The levels of mRNA were […] measured using a SYBRGreen supermix (Bio-Rad, Cat #1708880). GAPDH was used as an internal control.\nCells were lysed using the radioimmunoprecipitation assay (RIPA) buffer (Sigma-Aldrich, Cat #R0278) added with a cocktail of protease inhibitors (Thermo Fisher Scientific, Cat ##78430) and phosphatase inhibitors (Sigma-Aldrich, Cat #4906845001). Protein extracts were resolved on a 10% or 15% SDS polyacrylamide gel and then transferred to a polyvinylidene difluoride membrane. Membranes were blocked with 5% milk for 1 h and incubated with primary antibodies overnight at 4° C. […] The signals were detected using the Clarity Western ECL kit (Bio-Rad, Cat #1705060). […] After treatment, supernatants were collected, and the protein levels of CCL5, CXCL9, CXCL10 and CXCL11 were measured with ELISA (R&D Systems, Cat #DRN00B, DCX900, DIP100, DCX110) according to the manufacturer's instructions."}, "pH2A.X": {"system": "pH2A.X", "assay": "pH2A.X immunofluorescent staining in 4NQO-induced HNSCC", "parameters": "species or system mouse", "conditions": "4NQO-induced HNSCC in vivo"}, "[3]": {"system": "cGAS-STING-IRF3 signaling", "assay": "Western blot of phosphorylated STING, TBK1, IRF3", "assay_type": "cell-based, human", "procedure": "Cells were lysed using the radioimmunoprecipitation assay (RIPA) buffer (Sigma-Aldrich, Cat #R0278) added with a cocktail of protease inhibitors (Thermo Fisher Scientific, Cat ##78430) and phosphatase inhibitors (Sigma-Aldrich, Cat #4906845001). Protein extracts were resolved on a 10% or 15% SDS polyacrylamide gel and then transferred to a polyvinylidene difluoride membrane. Membranes were blocked with 5% milk for 1 h and incubated with primary antibodies overnight at 4° C. Primary antibodies used in this study were: anti-phospho-STING (Ser366) (1:1,000; Cell Signaling Technology, Cat #19781), anti-STING (1:1,000; Cell Signaling Technology, Cat #13647), anti-phospho-TBK1 (Ser172) (1:1,000; Cell Signaling Technology, Cat #5483), anti-TBK1 (1:1,000; Cell Signaling Technology, Cat #3504), anti-phospho-IRF3 (Ser396) (1:1,000; Cell Signaling Technology, Cat #29047), anti-IRF3 (1:1,000; Cell Signaling Technology, Cat #4302), anti-BMI1 (1:1,000; Cell Signaling Technology, Cat #6964), anti-Ubiquityl-Histone H2A (Lys119) (1:1000, Cell Signaling Technology, Cat #8240), anti-phospho Histone H2A.X (Ser139) (1:1000; Cell Signaling Technology, Cat #9718), and anti-GAPDH (1:1000; Cell Signaling Technology, Cat #5174), anti-Histone H3 (1:2,000; Cell Signaling Technology, Cat #4499). The signals were detected using the Clarity Western ECL kit (Bio-Rad, Cat #1705060). To measure the protein levels of CCL5, CXCL9, CXCL10 and CXCL11, cells were treated with PTC209 or shBMI1 knockdown for 48 hr. After treatment, supernatants were collected, and the protein levels of CCL5, CXCL9, CXCL10 and CXCL11 were measured with ELISA (R&D Systems, Cat #DRN00B, DCX900, DIP100, DCX110) according to the manufacturer's instructions."}, "IFNβ": {"system": "IFNβ", "assay": "qRT-PCR of IFNβ mRNA", "assay_type": "cell-based, human", "conditions": "SCC23 cells", "procedure": "as §1"}, "SCC23 cells [4]": {"system": "SCC23 cells", "assay": "qRT-PCR of ATM, DNA-PKcs, MRE11, JUN, FOSL1, MMP3, MMP9 in SCC23 cells", "assay_type": "cell-based, human", "procedure": "as §1"}, "[5]": {"system": "CSCs isolated from human colorectal cancers", "conditions": "cited from earlier work"}, "xenografted HNSCC": {"system": "xenografted HNSCC", "conditions": "human tumor cells in immunodeficient mice; cited from earlier work"}}, "data": [{"smiles": "COc1cc(Br)c(Nc2nc(-c3c(C)nc4ncccn34)cs2)c(Br)c1", "note": "[PTC209, N-(2,6-dibromo-4-methoxyphenyl)-4-(2-methylimidazo[1,2-a]pyrimidin-3-yl)thiazol-2-amine]", "values": [{"measurement": "BMI1+ CSCs in HNSCC (in vivo labeling)", "setting": "BMI1+ CSCs", "result": "able to reduce BMI1+ CSCs"}, {"measurement": "percentage of CD8+ T cells and IFNγ-produced CD8+ T cells", "setting": "CD8+ T cells", "result": "no significant alteration in the percentage of CD8+ T cells and IFNγ-produced CD8+ T cells"}, {"measurement": "IFN-regulated chemokines (CCL5, CXCL9, CXCL10, and CXCL11), RNA-seq heatmap", "setting": "SCC23 cells [1]", "result": "significantly increased"}, {"measurement": "GO analysis of induced genes", "setting": "SCC23 cells [1]; RNA-Seq", "result": "induced the expression of genes associated with immune response and chemotaxis"}, {"measurement": "expression of CCL5, CXCL9, CXCL10, and CXCL11", "setting": "[2]", "result": "significantly increased the expression of CCL5, CXCL9, CXCL10, and CXCL11 in both SCC1 and SCC23 cells"}, {"measurement": "pH2A.X in HNSCC", "setting": "pH2A.X", "result": "significantly increased"}, {"measurement": "phosphorylation of STING (S366), TBK1 (S172) and IRF3 (S396)", "setting": "[3]; SCC1 cells", "result": "induction of phosphorylation of STING (S366), TBK1 (S172) and IRF3 (S396) in SCC1 cells"}, {"measurement": "phosphorylation of STING (S366), TBK1 (S172) and IRF3 (S396)", "setting": "[3]; SCC23 cells", "result": "induction of phosphorylation of STING (S366), TBK1 (S172) and IRF3 (S396) in SCC23 cells"}, {"measurement": "IFNβ mRNA expression", "setting": "IFNβ", "result": "induction of IFNβ mRNA expression in SCC23 cells"}, {"measurement": "ATM, DNA-PKcs, and MRE11 mRNA expression", "setting": "SCC23 cells [4]", "result": "does not affect the expression of ATM, DNA-PKcs, and MRE11"}, {"measurement": "JUN, FOSL1, MMP3, and MMP9 mRNA expression", "setting": "SCC23 cells [4]", "result": "does not change the expression of JUN, FOSL1, MMP3, and MMP9 significantly"}, {"measurement": "colorectal tumor growth and frequency of CSCs", "setting": "[5]; mouse xenograft models", "result": "inhibited colorectal tumor growth and reduced the frequency of CSCs in mouse xenograft models"}, {"measurement": "self-renewal of CSCs", "setting": "[5]; xenografted nude mouse model", "result": "abolish the self-renewal of CSCs isolated from human colorectal cancers"}, {"measurement": "xenografted HNSCC growth", "setting": "xenografted HNSCC", "result": "inhibit xenografted HNSCC growth"}]}]}
